By IC50 is commonly meant the concentration that inhibits the measured activity by half.

Bridge positions count the residues as written; N and C are the ends. Square brackets hold non-standard residues; d marks the D form. Peptide text beside a SMILES is read from it. * marks the point of attachment. Bip = N[C@@H](Cc1ccc(-c2ccccc2)cc1)C(=O)O; Phe(3-Me) = Cc1cccc(C[C@H](N)C(=O)O)c1; Cha = N[C@@H](CC1CCCCC1)C(=O)O; Cit = NC(=O)NCCC[C@H](N)C(=O)O; Carboxymethyl = O=C(O)C*; Orn = NCCC[C@H](N)C(=O)O; Aun = NCCCCCCCCCCC(=O)O; Dab = NCC[C@H](N)C(=O)O; Dap = NC[C@H](N)C(=O)O

13 molecules from patent US20260022142A1, “MACROCYCLIC IMMUNOMODULATORS” (Bristol-Myers Squibb Company, priority 2022, published 2026) can be followed below.

T1 sequence (Q15116 25-288): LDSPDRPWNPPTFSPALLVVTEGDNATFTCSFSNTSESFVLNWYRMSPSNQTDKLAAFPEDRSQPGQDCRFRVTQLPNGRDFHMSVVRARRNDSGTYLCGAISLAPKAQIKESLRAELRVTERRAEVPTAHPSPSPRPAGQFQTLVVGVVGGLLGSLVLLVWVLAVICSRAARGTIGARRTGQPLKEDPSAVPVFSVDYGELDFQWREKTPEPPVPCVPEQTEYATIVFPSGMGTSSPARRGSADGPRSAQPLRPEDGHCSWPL

The assay has as its target T1, PD-1/PD-L1 interaction (PE-labeled human PD-L1-Ig binding to Jurkat cell line over-expressing human PD-1) (Homo sapiens, UniProt Q15116).
T1 construct: expressed in transfected cells; host or cells: Jurkat
Briefly: Jurkat-PD-1 Cell Binding High-Content Screening Assay (CBA). Format: cell-based. Particulars: Jurkat cell line over-expressing human PD-1; PE-labeled PD-L1-Ig 20 nM final; read-out: Jurkat hPD1-PDL1 IC50. A digest of the protocol:
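Binding of fluorescent PD-L1-Ig (20 nM final) to Jurkat-PD-1 cells was measured by automated imaging after 1 h, following a 2 h compound pre-treatment at 37° C.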
As to `Cc1cccc(C[C@@H]2NC(=O)[C@H](CC(=O)O)NC(=O)[C@H](Cc3ccc(OCC(=O)O)cc3)NC(=O)[C@H](CN)NC(=O)CSC[C@@H](C(=O)N[C@@H](C)C(=O)N[C@@H](CCCCN)C(=O)NCC(=O)NCCCCCCCCCCC(=O)O)NC(=O)[C@H]([C@@H](C)O)NC(=O)[C@H](C(C)C)NC(=O)[C@H](CC3CCCCC3)NC(=O)[C@H](CCN)NC(=O)[C@@H](CC(C)C)NC(=O)[C@H](CCCN)NC(=O)[C@H](CCCNC(N)=O)NC(=O)[C@H](Cc3ccc(-c4ccccc4)cc3)NC(=O)[C@H](C(C)C)NC2=O)c1` [Compound 1066] ({CH2CO}-[Dap]Y(Carboxymethyl)D[Phe(3-Me)]V[Bip][Cit][Orn][dL][Dab][Cha]VTCAKG[Aun]-OH; thioether N-14), the IC50 is 13.9 nM. For `Cc1cccc(C[C@@H]2NC(=O)[C@H](CC(=O)O)NC(=O)[C@H](Cc3ccc(OCC(=O)O)cc3)NC(=O)[C@H](Cc3ccc(OCC(=O)O)cc3)NC(=O)CSC[C@@H](C(=O)NCC(=O)N[C@@H](CCCN)C(=O)NCC(=O)NCCCCCCCCCCC(=O)O)NC(=O)[C@H](CO)NC(=O)[C@H](C(C)C)NC(=O)[C@H](CC3CCCCC3)NC(=O)[C@H](CCN)NC(=O)[C@@H](CC(C)C)NC(=O)[C@H](CCCN)NC(=O)[C@H](C(C)C)NC(=O)[C@H](Cc3ccc(-c4ccccc4)cc3)NC(=O)[C@H](CC(C)C)NC2=O)c1` [Compound 1067] ({CH2CO}-Y(Carboxymethyl)Y(Carboxymethyl)D[Phe(3-Me)]L[Bip]V[Orn][dL][Dab][Cha]VSCG[Orn]G[Aun]-OH; thioether N-14) the value was 28.5 nM; for `Cc1cccc(C[C@@H]2NC(=O)[C@H](CC(=O)O)NC(=O)[C@H](Cc3ccc(OCC(=O)O)cc3)NC(=O)[C@H](CN)NC(=O)CSC[C@@H](C(=O)N[C@@H](C)C(=O)N[C@@H](CCCN)C(=O)NCC(=O)NCCCCCCCCCCC(=O)O)NC(=O)[C@H]([C@@H](C)O)NC(=O)[C@H](C(C)C)NC(=O)[C@H](CC3CCCCC3)NC(=O)[C@H](CCN)NC(=O)[C@@H](CC(C)C)NC(=O)[C@H](CCCN)NC(=O)[C@H](CCCNC(N)=O)NC(=O)[C@H](Cc3ccc(-c4ccccc4)cc3)NC(=O)[C@H](C(C)C)NC2=O)c1` [Compound 1068] ({CH2CO}-[Dap]Y(Carboxymethyl)D[Phe(3-Me)]V[Bip][Cit][Orn][dL][Dab][Cha]VTCA[Orn]G[Aun]-OH; thioether N-14), 10.4 nM. Consider `Cc1cccc(C[C@@H]2NC(=O)[C@H](CC(=O)O)NC(=O)[C@H](Cc3ccc(OCC(=O)O)cc3)NC(=O)[C@H](Cc3ccc(OCC(=O)O)cc3)NC(=O)CSC[C@@H](C(=O)NCC(=O)N[C@@H](CCCCN)C(=O)NCCCCCCCCCCC(=O)O)NC(=O)[C@H](CO)NC(=O)[C@H](C(C)C)NC(=O)[C@H](CC3CCCCC3)NC(=O)[C@H](CCN)NC(=O)[C@@H](CC(C)C)NC(=O)[C@H](CCCN)NC(=O)[C@H](C(C)C)NC(=O)[C@H](Cc3ccc(-c4ccccc4)cc3)NC(=O)[C@H](CC(C)C)NC2=O)c1` [Compound 1069] ({CH2CO}-Y(Carboxymethyl)Y(Carboxymethyl)D[Phe(3-Me)]L[Bip]V[Orn][dL][Dab][Cha]VSCGK[Aun]-OH; thioether N-14), for which the IC50 was found to be 41.7 nM. In the case of `Cc1cccc(C[C@@H]2NC(=O)[C@H](CC(=O)O)NC(=O)[C@H](Cc3ccc(OCC(=O)O)cc3)NC(=O)[C@H](CN)NC(=O)CSC[C@@H](C(=O)N[C@@H](C)C(=O)N[C@@H](CCCCN)C(=O)NCCCCCCCCCCC(=O)O)NC(=O)[C@H]([C@@H](C)O)NC(=O)[C@H](C(C)C)NC(=O)[C@H](CC3CCCCC3)NC(=O)[C@H](CCN)NC(=O)[C@@H](CC(C)C)NC(=O)[C@H](CCCN)NC(=O)[C@H](CCCNC(N)=O)NC(=O)[C@H](Cc3ccc(-c4ccccc4)cc3)NC(=O)[C@H](C(C)C)NC2=O)c1` [Compound 1070] ({CH2CO}-[Dap]Y(Carboxymethyl)D[Phe(3-Me)]V[Bip][Cit][Orn][dL][Dab][Cha]VTCAK[Aun]-OH; thioether N-14), the IC50 was 10.4 nM. On to `Cc1cccc(C[C@@H]2NC(=O)[C@H](CC(=O)O)NC(=O)[C@H](Cc3ccc(OCC(=O)O)cc3)NC(=O)[C@H](Cc3ccc(OCC(=O)O)cc3)NC(=O)CSC[C@@H](C(=O)NCC(=O)N[C@@H](CCCN)C(=O)NCCCCCCCCCCC(=O)O)NC(=O)[C@H](CO)NC(=O)[C@H](C(C)C)NC(=O)[C@H](CC3CCCCC3)NC(=O)[C@H](CCN)NC(=O)[C@@H](CC(C)C)NC(=O)[C@H](CCCN)NC(=O)[C@H](C(C)C)NC(=O)[C@H](Cc3ccc(-c4ccccc4)cc3)NC(=O)[C@H](CC(C)C)NC2=O)c1` [Compound 1071] ({CH2CO}-Y(Carboxymethyl)Y(Carboxymethyl)D[Phe(3-Me)]L[Bip]V[Orn][dL][Dab][Cha]VSCG[Orn][Aun]-OH; thioether N-14), for which the IC50 was determined as 42.5 nM. As to `Cc1cccc(C[C@@H]2NC(=O)[C@H](CC(=O)O)NC(=O)[C@H](Cc3ccc(OCC(=O)O)cc3)NC(=O)[C@H](CN)NC(=O)CSC[C@@H](C(=O)N[C@@H](C)C(=O)N[C@@H](CCCN)C(=O)NCCCCCCCCCCC(=O)O)NC(=O)[C@H]([C@@H](C)O)NC(=O)[C@H](C(C)C)NC(=O)[C@H](CC3CCCCC3)NC(=O)[C@H](CCN)NC(=O)[C@@H](CC(C)C)NC(=O)[C@H](CCCN)NC(=O)[C@H](CCCNC(N)=O)NC(=O)[C@H](Cc3ccc(-c4ccccc4)cc3)NC(=O)[C@H](C(C)C)NC2=O)c1` [Compound 1072] ({CH2CO}-[Dap]Y(Carboxymethyl)D[Phe(3-Me)]V[Bip][Cit][Orn][dL][Dab][Cha]VTCA[Orn][Aun]-OH; thioether N-14), the IC50 came to 14.2 nM. The value for `Cc1cccc(C[C@@H]2NC(=O)[C@H](CC(=O)O)NC(=O)[C@H](Cc3ccc(OCC(=O)O)cc3)NC(=O)[C@H](Cc3ccc(OCC(=O)O)cc3)NC(=O)CSC[C@@H](C(=O)NCC(=O)N[C@@H](CCCCN)C(=O)NCC(=O)NCCCCCCCCCCC(=O)O)NC(=O)[C@H](CO)NC(=O)[C@H](C(C)C)NC(=O)[C@H](CC3CCCCC3)NC(=O)[C@H](CCN)NC(=O)[C@@H](CC(C)C)NC(=O)[C@H](CCCN)NC(=O)[C@H](C(C)C)NC(=O)[C@H](Cc3ccc(-c4ccccc4)cc3)NC(=O)[C@H](CC(C)C)NC2=O)c1` [Compound 1073] ({CH2CO}-Y(Carboxymethyl)Y(Carboxymethyl)D[Phe(3-Me)]L[Bip]V[Orn][dL][Dab][Cha]VSCGKG[Aun]-OH; thioether N-14) was 15.2 nM; that for `CC(C)C[C@H]1NC(=O)[C@H](CCCN)NC(=O)[C@H](C(C)C)NC(=O)[C@H](Cc2ccc(-c3ccccc3)cc2)NC(=O)[C@H](C(C)C)NC(=O)[C@H](Cc2c[nH]c3ccccc23)NC(=O)[C@H](CC(=O)O)NC(=O)[C@H](Cc2ccc(OCC(=O)O)cc2)NC(=O)[C@H](CN)NC(=O)CSC[C@@H](C(=O)N[C@@H](CN)C(=O)NCCCCCCCCCCC(=O)O)NC(=O)[C@H]([C@@H](C)O)NC(=O)[C@H](C(C)C)NC(=O)[C@H](CC2CCCCC2)NC(=O)[C@H](Cc2c[nH]cn2)NC1=O` [Compound 1074] ({CH2CO}-[Dap]Y(Carboxymethyl)DWV[Bip]V[Orn][dL]H[Cha]VTC[Dap][Aun]-OH; thioether N-14) was 69.5 nM; that for `CC(C)C[C@H]1NC(=O)[C@H](CCCN)NC(=O)[C@H](C(C)C)NC(=O)[C@H](Cc2ccc(-c3ccccc3)cc2)NC(=O)[C@H](C(C)C)NC(=O)[C@H](Cc2c[nH]c3ccccc23)NC(=O)[C@H](CC(=O)O)NC(=O)[C@H](Cc2ccc(OCC(=O)O)cc2)NC(=O)[C@H](CN)NC(=O)CSC[C@@H](C(=O)N[C@@H](CCN)C(=O)NCCCCCCCCCCC(=O)O)NC(=O)[C@H]([C@@H](C)O)NC(=O)[C@H](C(C)C)NC(=O)[C@H](CC2CCCCC2)NC(=O)[C@H](Cc2c[nH]cn2)NC1=O` [Compound 1075] ({CH2CO}-[Dap]Y(Carboxymethyl)DWV[Bip]V[Orn][dL]H[Cha]VTC[Dab][Aun]-OH; thioether N-14) was 34.6 nM. For `CC(C)C[C@H]1NC(=O)[C@H](CCCN)NC(=O)[C@H](C(C)C)NC(=O)[C@H](Cc2ccc(-c3ccccc3)cc2)NC(=O)[C@H](C(C)C)NC(=O)[C@H](Cc2c[nH]c3ccccc23)NC(=O)[C@H](CC(=O)O)NC(=O)[C@H](Cc2ccc(OCC(=O)O)cc2)NC(=O)[C@H](CN)NC(=O)CSC[C@@H](C(=O)N[C@@H](CCCN)C(=O)NCCCCCCCCCCC(=O)O)NC(=O)[C@H]([C@@H](C)O)NC(=O)[C@H](C(C)C)NC(=O)[C@H](CC2CCCCC2)NC(=O)[C@H](Cc2c[nH]cn2)NC1=O` [Compound 1076] ({CH2CO}-[Dap]Y(Carboxymethyl)DWV[Bip]V[Orn][dL]H[Cha]VTC[Orn][Aun]-OH; thioether N-14) the value was 44.1 nM; for `CC(C)C[C@H]1NC(=O)[C@H](CCCN)NC(=O)[C@H](C(C)C)NC(=O)[C@H](Cc2ccc(-c3ccccc3)cc2)NC(=O)[C@H](C(C)C)NC(=O)[C@H](Cc2c[nH]c3ccccc23)NC(=O)[C@H](CC(=O)O)NC(=O)[C@H](Cc2ccc(OCC(=O)O)cc2)NC(=O)[C@H](CN)NC(=O)CSC[C@@H](C(=O)N[C@@H](CCCCN)C(=O)NCCCCCCCCCCC(=O)O)NC(=O)[C@H]([C@@H](C)O)NC(=O)[C@H](C(C)C)NC(=O)[C@H](CC2CCCCC2)NC(=O)[C@H](Cc2c[nH]cn2)NC1=O` [Compound 1077] ({CH2CO}-[Dap]Y(Carboxymethyl)DWV[Bip]V[Orn][dL]H[Cha]VTCK[Aun]-OH; thioether N-14), 46.7 nM; for `CC(C)C[C@H]1NC(=O)[C@H](CCCN)NC(=O)[C@H](C(C)C)NC(=O)[C@H](Cc2ccc(-c3ccccc3)cc2)NC(=O)[C@H](C(C)C)NC(=O)[C@H](Cc2c[nH]c3ccccc23)NC(=O)[C@H](CC(=O)O)NC(=O)[C@H](Cc2ccc(OCC(=O)O)cc2)NC(=O)[C@H](CN)NC(=O)CSC[C@@H](C(=O)N[C@@H](CC(=O)O)C(=O)NCCCCCCCCCCC(=O)O)NC(=O)[C@H]([C@@H](C)O)NC(=O)[C@H](C(C)C)NC(=O)[C@H](CC2CCCCC2)NC(=O)[C@H](Cc2c[nH]cn2)NC1=O` [Compound 1078] ({CH2CO}-[Dap]Y(Carboxymethyl)DWV[Bip]V[Orn][dL]H[Cha]VTCD[Aun]-OH; thioether N-14), 84.9 nM.
